Results as given in publication PMC9979347 (ACS Omega, 2023).
Where “and” joins values, the source holds several entries; their conditions need not be identical. Equal entries are not always repeated. Entries after “also recorded” stand apart in the source; their conditions may differ. Where two headings read alike, the source gives them in different places. Values belong to the compound of their own block, whether it stands above or below them.

Experiments:
hCA XII = hCA XII (Homo sapiens, UniProt O43570); experiment: biochemical
Chain of hCA XII (O43570 25-354): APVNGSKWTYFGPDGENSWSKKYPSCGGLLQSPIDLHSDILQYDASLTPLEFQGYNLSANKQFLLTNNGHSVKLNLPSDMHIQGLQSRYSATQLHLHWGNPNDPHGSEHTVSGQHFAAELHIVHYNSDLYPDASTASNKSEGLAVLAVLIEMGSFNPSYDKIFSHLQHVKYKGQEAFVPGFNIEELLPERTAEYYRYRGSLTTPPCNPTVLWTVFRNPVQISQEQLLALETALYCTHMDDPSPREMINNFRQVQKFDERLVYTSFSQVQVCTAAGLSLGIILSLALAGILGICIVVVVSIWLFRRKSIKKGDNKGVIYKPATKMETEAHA

hCA I = hCA I (Homo sapiens, UniProt P00915); experiment: stopped-flow CO2 hydration inhibition assay; type: biochemical
Chain of hCA I (P00915 whole entry): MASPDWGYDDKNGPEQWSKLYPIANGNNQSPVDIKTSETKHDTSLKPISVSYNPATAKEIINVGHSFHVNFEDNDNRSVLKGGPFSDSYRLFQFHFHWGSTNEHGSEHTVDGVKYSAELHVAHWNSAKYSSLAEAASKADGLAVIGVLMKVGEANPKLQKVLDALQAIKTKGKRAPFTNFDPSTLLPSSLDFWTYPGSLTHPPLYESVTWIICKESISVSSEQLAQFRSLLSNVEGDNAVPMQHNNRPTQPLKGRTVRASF

hCA IX = hCA IX (Homo sapiens, UniProt Q16790); experiment: biochemical; type: biochemical
hCA II = hCA II (Homo sapiens, UniProt P00918); experiment: stopped-flow CO2 hydration inhibition assay; type: biochemical
SR = experiment: NCI-60 SRB screen; type: cell-based, human; conditions: five-dose, 48 h
hCA I, II, IX, and XII = experiment: stopped-flow CO2 hydration inhibition assay, across the four isoforms; type: biochemical, human
recombinant Pim-1 kinase [1] = target: T1, recombinant Pim-1 kinase (Homo sapiens, UniProt P11309); experiment: biochemical; conditions: Pim-1 kinase IC50 (μM ± SD), ADP-Glo
T1 sequence (P11309 whole entry): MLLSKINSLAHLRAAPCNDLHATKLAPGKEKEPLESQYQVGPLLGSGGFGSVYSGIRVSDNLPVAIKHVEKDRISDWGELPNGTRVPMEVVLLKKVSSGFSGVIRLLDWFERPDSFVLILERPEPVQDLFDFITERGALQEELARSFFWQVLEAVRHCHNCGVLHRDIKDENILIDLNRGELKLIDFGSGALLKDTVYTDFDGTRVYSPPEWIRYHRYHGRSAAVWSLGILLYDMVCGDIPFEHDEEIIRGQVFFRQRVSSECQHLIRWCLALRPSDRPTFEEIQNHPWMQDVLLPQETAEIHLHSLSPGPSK

hypoxic LOX IMVI cells = experiment: cells; conditions: Homo sapiens, 48 h, read-out: Cytotoxicity IC50 (μM ± SD) LOX IMVI
HEK293T cells [2] = conditions: for selectivity against colorectal carcinoma HCT116 cells: HEK293T IC50 versus HCT116 GI50; for average cancer cell fold selectivity: HEK293T IC50 versus average NCI-60 GI50; for IC50: read-out: IC50 (μM ± SD) normal HEK293T cells, MTT, 48 h, triplicate; for cancer cell selectivity compared to non-cancerous HEK293T cells: up to
hypoxic HCT116 cells = experiment: cells; conditions: Homo sapiens, HCT-116, 48 h, read-out: Cytotoxicity IC50 (μM ± SD) HCT116
HEK293T cells [3] = experiment: cells; conditions: Homo sapiens, HEK-293T, 48 h, read-out: IC50 (μM ± SD) normal HEK293T cells, MTT, 48 h, triplicate
hypoxic U251 cells = experiment: cells; conditions: Homo sapiens, U-251, 48 h, read-out: Cytotoxicity IC50 (μM ± SD) U251
K-562 = experiment: NCI-60 SRB screen; type: cell-based; conditions: Homo sapiens, K562, 48 h
HCT116 cells [4] = experiment: cell cycle analysis by propidium iodide flow cytometry; type: cell-based, human; conditions: HCT116, 2.94 μM, 24 h
[5] = tested on: Nrf2 in HCT116 cell nuclei; experiment: Nrf2 transcription factor ELISA on nuclear protein; type: cell-based, human
recombinant Pim-1 kinase [6] = target: T1, recombinant Pim-1 kinase
[7] = tested on: ROS level in HCT116 cells; experiment: reactive oxygen species fluorometric assay; type: cell-based, human; conditions: HCT116, 2.94 μM
HCT116 cells [8] = experiment: Annexin V-FITC/PI apoptosis assay; type: cell-based, human; conditions: HCT116, 2.94 μM, 24 h
HCT15 = experiment: NCI-60 SRB screen; type: cell-based; conditions: Homo sapiens, HCT-15, 48 h

- Ki (hCA XII): > 10 µM
- Ki (hCA I): > 10 µM
- Ki (hCA IX): > 10 µM
- Ki (hCA II): > 10 µM
Compound: COc1ccc(C(=O)/C=C/c2ccccc2Cl)cc1S(N)(=O)=O [4a, 5-[(2E)-3-(2-Chlorophenyl)prop-2-enoyl]-2-methoxybenzene-1-sulfonamide]

- Ki (hCA XII): > 10 µM
- Ki (hCA I): > 10 µM
- Ki (hCA IX): > 10 µM
- Ki (hCA II): > 10 µM
Compound: COc1ccc(C(=O)/C=C/c2cccc(Cl)c2)cc1S(N)(=O)=O [4b, 5-[(2E)-3-(3-Chlorophenyl)prop-2-enoyl]-2-methoxybenzene-1-sulfonamide]
- GI50 (SR): sub-micromolar

- Ki (hCA XII): > 10 µM
- Ki (hCA I): > 10 µM
- Ki (hCA IX): 4.71 µM
- Ki (hCA II): > 10 µM
Compound: COc1ccc(C(=O)/C=C/c2ccccc2Br)cc1S(N)(=O)=O [4c, 5-[(2E)-3-(2-Bromophenyl)prop-2-enoyl]-2-methoxybenzene-1-sulfonamide]

- Ki (hCA XII): > 10 µM
- Ki (hCA I): > 10 µM
- Ki (hCA IX): > 10 µM
- Ki (hCA II): > 10 µM
Compound: COc1ccc(C(=O)/C=C/c2ccc3ccccc3c2)cc1S(N)(=O)=O [4k, 2-Methoxy-5-[(2E)-3-(Naphthalen-2-Yl)Prop-2-Enoyl]Benzene-1-Sulfonamide]
- GI50 (HCT15): 0.58 µM
- GI50 (SR): sub-micromolar

- Ki (hCA I): > 10 µM
Compound: COc1ccc(C(=O)/C=C/c2cc3c(cc2Br)OCO3)cc1S(N)(=O)=O [4l, 5-[(2E)-3-(6-Bromo-2H-1,3-benzodioxol-5-yl)prop-2-enoyl]-2-methoxybenzene-1-sulfonamide]
- GI50 (K-562): 0.45 µM

Second part, the compound before the results:

Compound: COc1ccc(C(=O)/C=C/c2cccc(Br)c2)cc1S(N)(=O)=O [4d, 5-[(2E)-3-(3-Bromophenyl)prop-2-enoyl]-2-methoxybenzene-1-sulfonamide]
- selectivity toward hCA I and hCA II over hCA IX and hCA XII (hCA I, II, IX, and XII): ca. 10 fold
- Ki (hCA I, II, IX, and XII; read-out: average Ki value against the four tested isoforms, hCA I, II, IX, XII): 4 µM
- IC50 (recombinant Pim-1 kinase [1]): ~1.06 µM and 1.06 µM
- IC50 (hypoxic LOX IMVI cells): 38.3 ± 1.63 µM
- Ki (hCA I): 0.85 µM
- selectivity against colorectal carcinoma HCT116 cells (HEK293T cells [2]): ca. 50 fold
- average cancer cell fold selectivity (HEK293T cells [2]): ca. 20 fold
- IC50 (HEK293T cells [2]): 52.7 ± 2.03 µM
- cancer cell selectivity compared to non-cancerous HEK293T cells (HEK293T cells [2]): up to 50 fold
- IC50 (hypoxic HCT116 cells): 6.32 ± 0.38 µM
- IC50 (HEK293T cells [3]): ~53 µM
- GI50 (SR): sub-micromolar
- IC50 (hypoxic U251 cells): 14.8 ± 0.61 µM
- Ki (hCA II): 0.5 µM

Compound: COc1ccccc1/C=C/C(=O)c1ccc(OC)c(S(N)(=O)=O)c1 [4e, 2-Methoxy-5-[(2E)-3-(2-methoxyphenyl)prop-2-enoyl]benzene-1-sulfonamide]
- GI50 (K-562): 0.35 µM

Compound: COc1ccc(C(=O)/C=C/c2ccc(Cl)c(Cl)c2)cc1S(N)(=O)=O [4i, 5-[(2E)-3-(3,4-Dichlorophenyl)prop-2-enoyl]-2-methoxybenzene-1-sulfonamide]
- GI50 (SR): sub-micromolar

Compound: COc1ccc(C(=O)/C=C/c2cccc3ccccc23)cc1S(N)(=O)=O [4j, 2-Methoxy-5-[(2E)-3-(naphthalen-1-yl)prop-2-enoyl]benzene-1-sulfonamide]
- cell cycle arrest phase (HCT116 cells [4]): arrested the cell cycle of HCT116 cells at the G1/S phase; also recorded: arresting cell growth at the G1/S phase
- percentage of cells at the G2/M phase (HCT116 cells [4]): 6%
- percentage of cells in G1 (G0-G1) phase (HCT116 cells [4]): 52%
- percentage of cells in S phase (HCT116 cells [4]): 42%
- fold increase in transcriptionally active nuclear Nrf2 ([5]; HCT116, 2.94 μM, versus DMSO): ca. 3.3 fold
- Nrf2 (ng/mL ± SD) ([5]; HCT116 nuclei, 2.94 μM, control 0.89): 2.92 ng/mL
- IC50 (recombinant Pim-1 kinase [1]): ~0.34 µM and 0.34 µM
- IC50 (hypoxic LOX IMVI cells): 12.1 ± 0.54 µM
- Ki (hCA I): > 10 µM
- fold more potent than staurosporine on Pim-1 kinase (recombinant Pim-1 kinase [6]): ca. 1.4 fold
- selectivity against colorectal carcinoma HCT116 cells (HEK293T cells [2]): ~15 fold
- average cancer cell fold selectivity (HEK293T cells [2]): ~9 fold
- IC50 (HEK293T cells [2]): 20.4 ± 0.94 µM
- cancer cell selectivity compared to non-cancerous HEK293T cells (HEK293T cells [2]): up to 50 fold
- IC50 (hypoxic HCT116 cells): 2.94 ± 0.19 µM
- selectivity to hCA IX over hCA I and hCA II / other tested isoforms (hCA IX): ca. six-fold selectivity; also recorded: more than six-fold selective; also recorded: greater than six-fold selectivity
- IC50 (HEK293T cells [3]): ~20 µM
- GI50 (SR): sub-micromolar
- ROS level increase compared to DMSO-treated cells [7]: ca. 50%
- IC50 (hypoxic U251 cells): 4.6 ± 0.26 µM
- early apoptosis (HCT116 cells [8]): 8.3%
- fold increase of total apoptotic cells versus control (HCT116 cells [8]): 25 fold
- late apoptosis (HCT116 cells [8]): 27.8%
- total apoptotic cells (HCT116 cells [8]): 39.5%
- Ki (hCA II): > 10 µM

Compound: COc1ccc(C(C)=O)cc1S(N)(=O)=O [compound 3, 5-acetyl-2-methoxybenzene-1-sulfonamide]
- Ki (hCA XII): 5.25 µM
- Ki (hCA I): 2.32 µM
- Ki (hCA IX): 1.39 µM
- Ki (hCA II): 4.59 µM
